Format in all cases: in vivo
For assay [1], the system named is Echinocloa crus-galli. The experiment in a line: greenhouse test, post-emergence treatment, ECHCG. The conditions noted are these: post-emergence. A digest of the protocol: (§1)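 Seeds were sown per species in loamy sand with about 3.0% humus, grown (or transplanted as seedlings) to 3–15 cm, and treated with water-suspended or emulsified compound. Response was assessed over 2–4 weeks at species-dependent 10–25 °C or 20–35 °C, scored 0 (normal growth) to 100 (complete kill).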

For a further assay, the system named is Setaria viridis. Put plainly: greenhouse test, post-emergence treatment, SETVI. From the text: (§2) The culture containers used were plastic flowerpots containing loamy sand with approximately 3.0% of humus as the substrate. The seeds of the test plants were sown separately for each species.
(§3) For the post-emergence treatment, the test plants were first grown to a height of 3 to 15 cm, depending on the plant habit, and only then treated with the active ingredients which had been suspended or emulsified in water. For this purpose, the test plants were either sown directly and grown in the same containers, or they were first grown separately as seedlings and transplanted into the test containers a few days prior to treatment.
(§4) Depending on the species, the plants were kept at 10-25° C. or 20-35° C., respectively.
(§5) The test period extended over 2 to 4 weeks. During this time, the plants were tended, and their response to the individual treatments was evaluated.
(§6) Evaluation was carried out using a scale from 0 to 100. 100 means no emergence of the plants, or complete destruction of at least the aerial moieties, and 0 means no damage, or normal course of growth. A good herbicidal activity is given at values of at least 70 and a very good herbicidal activity is given at values of at least 85.
(§7) The plants used in the greenhouse experiments were of the following species: […]

Another assay relates to Apera spica-venti. Put plainly: greenhouse test, pre-emergence treatment, APESV. A digest of the protocol: (§8)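 Scores run from 0, normal growth, to 100, no emergence or aerial parts destroyed, assessed after 2 to 4 weeks at 10-25 °C or 20-35 °C depending on species. Actives in water were spray-applied immediately post-sowing onto loamy sand with approximately 3.0% humus; hoods kept on until rooting.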

Assay [2] relates to Echinocloa crus-galli. The experiment in a line: greenhouse test, pre-emergence treatment, ECHCG. A digest of the protocol: as §8
In a further assay the test system is Alopecurus myosuroides. The experiment in a line: greenhouse test, post-emergence treatment, ALOMY. The conditions noted are these: post-emergence. The procedure, abridged:
as §1

Another assay deals with Amaranthus retroflexus. Put plainly: greenhouse test, post-emergence treatment, AMARE.
Description: as §2, §3, §4, §5, §6, §7

For the next assay, the system named is Avena fatua. The experiment in a line: greenhouse test, post-emergence treatment, AVEFA. The conditions noted are these: 1000 g/ha. A digest of the protocol: as §1

For `Cc1cc(-c2nc(C3CC3)ncc2-c2ccccc2Br)co1` [Ex. 271], the figures for the herbicidal activity result in the assay with Echinocloa crus-galli [1] (1000 g/ha) and with Setaria viridis (1000 g/ha) were “good (A good herbicidal activity is given at values of at least 70)” and “very good (a very good herbicidal activity is given at values of at least 85)”, respectively.

With `Clc1ccccc1-c1cnc(C2CC2)nc1CC1CCC1` [Ex. 98], in the assay with Setaria viridis (500 g/ha), the herbicidal activity result is listed as “good (A good herbicidal activity is given at values of at least 70)”.

Consider `Clc1ccccc1-c1cnc(C2CC2)nc1-c1ccco1` [Ex. 24], for which the herbicidal activity result in the assay on Echinocloa crus-galli [1] (2000 g/ha), in the assay with Apera spica-venti (2000 g/ha), with Setaria viridis (2000 g/ha) and with Echinocloa crus-galli [2] (2000 g/ha) was “very good (a very good herbicidal activity is given at values of at least 85)” in each case.

Turning to `Cc1cc(-c2nc(C3CC3)ncc2-c2ccccc2Cl)sn1` [Ex. 254], the herbicidal activity entry in the assay on Alopecurus myosuroides (1000 g/ha) is recorded as “good (A good herbicidal activity is given at values of at least 70)”; with Echinocloa crus-galli [1] (1000 g/ha), “very good (a very good herbicidal activity is given at values of at least 85)”; in the assay on Amaranthus retroflexus (1000 g/ha) it was “very good (a very good herbicidal activity is given at values of at least 85)”.

On to `CCc1ncc(-c2ccccc2Br)c(-c2ccco2)n1` [Ex. 62], for which the herbicidal activity entry in the assay on Setaria viridis (500 g/ha) was “very good (a very good herbicidal activity is given at values of at least 85)”.

As for `Cc1nc(C(C)Br)ncc1-c1ccccc1Cl` (stereo not drawn) [Ex. 52], in the assay with Setaria viridis (1000 g/ha), the herbicidal activity entry is recorded as “very good (a very good herbicidal activity is given at values of at least 85)”.

In the case of `CC(O)c1nc(C2CC2)ncc1-c1ccccc1Br` (stereo not drawn) [Ex. 114], the herbicidal activity result with Setaria viridis (500 g/ha) was “very good (a very good herbicidal activity is given at values of at least 85)”.

For `Clc1ccccc1-c1cnc(C2CC2)nc1C=C1CCOCC1` [Ex. 92], the herbicidal activity result in the assay on Alopecurus myosuroides (2000 g/ha), in the assay with Echinocloa crus-galli [1] (2000 g/ha) and with Setaria viridis (2000 g/ha) was “good (A good herbicidal activity is given at values of at least 70)” in each case.

On to `O=P(O)(O)C(Cc1nc(C2CC2)ncc1-c1ccccc1Cl)P(=O)(O)O` [Ex. 90], for which the herbicidal activity entry with Setaria viridis (2000 g/ha) is given as “very good (a very good herbicidal activity is given at values of at least 85)”.

For the compound `Ic1ccccc1-c1cnc(C2CC2)nc1-c1ccco1` [Ex. 76], the herbicidal activity entry in the assay with Alopecurus myosuroides (1000 g/ha) is given as “good (A good herbicidal activity is given at values of at least 70)”; with Setaria viridis (1000 g/ha) it was “very good (a very good herbicidal activity is given at values of at least 85)”.

Consider `COC(=O)C(O)Cc1nc(C2CC2)ncc1-c1ccccc1Cl` (stereo not drawn) [Ex. 129], for which the herbicidal activity entry with Alopecurus myosuroides (2000 g/ha), with Echinocloa crus-galli [1] (2000 g/ha), in the assay on Amaranthus retroflexus (2000 g/ha) and with Apera spica-venti (2000 g/ha) was “very good (a very good herbicidal activity is given at values of at least 85)” each time.

As to `Clc1ccc(-c2nc(C3CC3)ncc2-c2ccccc2Cl)s1` [Ex. 119], the herbicidal activity entry with Alopecurus myosuroides (1000 g/ha) is “very good (a very good herbicidal activity is given at values of at least 85)”; with Setaria viridis (1000 g/ha), “good (A good herbicidal activity is given at values of at least 70)”.

For the compound `Cc1ccoc1-c1nc(C2CC2)ncc1-c1ccccc1Cl` [Ex. 30], the herbicidal activity result with Alopecurus myosuroides (2000 g/ha), in the assay with Apera spica-venti (2000 g/ha), in the assay with Setaria viridis (2000 g/ha) and in the assay on Echinocloa crus-galli [2] (2000 g/ha) was “very good (a very good herbicidal activity is given at values of at least 85)” throughout.

For the compound `Clc1ccccc1-c1cnc(C2CC2)nc1CC1CCOCC1` [Ex. 96], the herbicidal activity result in the assay with Setaria viridis (1000 g/ha) is reported as “very good (a very good herbicidal activity is given at values of at least 85)”.

For `Cc1nc(C)c(-c2nc(C3CC3)ncc2-c2cc(Br)ccc2Br)o1` [Ex. 292], the herbicidal activity entry with Alopecurus myosuroides (1000 g/ha) was “good (A good herbicidal activity is given at values of at least 70)”; with Echinocloa crus-galli [1] (1000 g/ha), “very good (a very good herbicidal activity is given at values of at least 85)”; with Apera spica-venti (1000 g/ha), “very good (a very good herbicidal activity is given at values of at least 85)”; with Setaria viridis (1000 g/ha) it was “very good (a very good herbicidal activity is given at values of at least 85)”; in the assay with Echinocloa crus-galli [2] (1000 g/ha), “very good (a very good herbicidal activity is given at values of at least 85)”.

Turning to `Clc1ccccc1-c1cnc(C2CC2)nc1-c1ccc(Br)o1` [Ex. 31], the herbicidal activity result with Alopecurus myosuroides (2000 g/ha), with Apera spica-venti (2000 g/ha), in the assay on Setaria viridis (2000 g/ha) and in the assay on Echinocloa crus-galli [2] (2000 g/ha) was “very good (a very good herbicidal activity is given at values of at least 85)” in each case.

Take `Clc1ccccc1-c1cnc(C2CC2)nc1CC1CCCC1` [Ex. 99]: in the assay with Setaria viridis (2000 g/ha), the herbicidal activity entry is “very good (a very good herbicidal activity is given at values of at least 85)”.

Take `Ic1ccccc1-c1cnc(C2CCC2)nc1-c1ccco1` [Ex. 78]: the herbicidal activity entry in the assay with Setaria viridis (1000 g/ha) is on record as “very good (a very good herbicidal activity is given at values of at least 85)”.

Take `Fc1cccc(-c2cnc(C3CC3)nc2-c2ccco2)c1Cl` [Ex. 33]: in the assay with Setaria viridis (2000 g/ha), the herbicidal activity result was “good (A good herbicidal activity is given at values of at least 70)”.

For `COC(=O)COC(C)c1nc(C2CC2)ncc1-c1ccccc1Cl` (stereo not drawn) [Ex. 141], the herbicidal activity entry in the assay with Setaria viridis (1000 g/ha) is on record as “good (A good herbicidal activity is given at values of at least 70)”.

Regarding `CC(Br)c1ncc(-c2ccccc2Cl)c(CBr)n1` (stereo not drawn) [Ex. 51], the herbicidal activity result in the assay on Setaria viridis (1000 g/ha) is given as “very good (a very good herbicidal activity is given at values of at least 85)”.

On to `OCc1nc(C2CC2)ncc1-c1ccc(F)cc1Cl` [Ex. 15], for which the herbicidal activity entry with Alopecurus myosuroides (1000 g/ha) is “very good (a very good herbicidal activity is given at values of at least 85)”; in the assay on Amaranthus retroflexus (1000 g/ha), “good (A good herbicidal activity is given at values of at least 70)”; in the assay on Avena fatua it was “very good (a very good herbicidal activity is given at values of at least 85)”; in the assay on Apera spica-venti (1000 g/ha), “very good (a very good herbicidal activity is given at values of at least 85)”; in the assay with Echinocloa crus-galli [2] (1000 g/ha), “very good (a very good herbicidal activity is given at values of at least 85)”.

On to `COC(=O)Cc1nc(C2CC2)ncc1-c1cc(F)ccc1Cl` [Ex. 150], for which the herbicidal activity entry in the assay on Alopecurus myosuroides (2000 g/ha) is “good (A good herbicidal activity is given at values of at least 70)”; in the assay with Echinocloa crus-galli [1] (2000 g/ha) it was “very good (a very good herbicidal activity is given at values of at least 85)”; in the assay on Amaranthus retroflexus (2000 g/ha), “very good (a very good herbicidal activity is given at values of at least 85)”; with Apera spica-venti (2000 g/ha) it was “very good (a very good herbicidal activity is given at values of at least 85)”; in the assay on Echinocloa crus-galli [2] (2000 g/ha), “good (A good herbicidal activity is given at values of at least 70)”.

With `O=[N+]([O-])c1ccccc1-c1cnc(C2CC2)nc1-c1cccs1` [Ex. 38], the herbicidal activity entry in the assay with Setaria viridis (1000 g/ha) is reported as “good (A good herbicidal activity is given at values of at least 70)”.

For the compound `CC(C)(C)CCc1nc(C2CC2)ncc1-c1ccccc1Cl` [Ex. 103], the herbicidal activity result with Setaria viridis (2000 g/ha) was “very good (a very good herbicidal activity is given at values of at least 85)”.

Regarding `CC(C)=Cc1nc(C2CC2)ncc1-c1ccccc1Cl` [Ex. 70], the herbicidal activity entry in the assay on Alopecurus myosuroides (2000 g/ha) and with Setaria viridis (2000 g/ha) was “very good (a very good herbicidal activity is given at values of at least 85)” each time.

Take `OC1(Cc2nc(C3CC3)ncc2-c2ccccc2Cl)CCCC1` [Ex. 74]: in the assay on Setaria viridis (2000 g/ha), the herbicidal activity entry is “very good (a very good herbicidal activity is given at values of at least 85)”.

Regarding `CCOP(=O)(OCC)C(Cc1nc(C2CC2)ncc1-c1ccccc1Cl)P(=O)(OCC)OCC` [Ex. 88], the herbicidal activity entry in the assay on Setaria viridis (2000 g/ha) was “very good (a very good herbicidal activity is given at values of at least 85)”.

The record behind these values is patent US11178871B2, “Herbicidal pyrimidine compounds” (BASF SE, priority 2016, dated 2021).
